One compound from patent US5316775A, “Method of treating hepatitis B infection” (Kremers-Urban Company, priority 1993, dated 1994) can be followed below.

“And” between values parts separate entries of the source, which are not always exact repeats. Equal values may be shown once. Read-outs that look alike come from different tables or passages of the source.

Common to all, as to assay type: cell-based
One data set relates to HBV. Description: antihepatitis viral activity: HBV virion DNA and intracellular HBV DNA in cultured cells (blot hybridization). On the procedure:
Details of the assay methodology can be found in: Korba and Milman, Antiviral Res., 15:217 (1991) and Korba and Gerin, Antiviral Res. (1992) (in press). The antiviral evaluations were performed on two separate passages of cells. All wells, in all plates, were seeded at the same density and at the same time. Due to the inherent variations in the levels of both intracellular and extracellular HBV DNA, only depressions greater than 3.5-fold (for HBV virion DNA) or 3.0-fold (for HBV DNA replication intermediates) from the average levels for these HBV DNA forms in untreated cells are generally considered to be statistically significant [P<0.05]. The levels of integrated HBV DNA in each cellular DNA preparation (which remain constant on a per cell basis in these experiments) were used to calculate the levels of intracellular HBV DNA forms, thereby eliminating technical variations inherent in the blot hybridization assays.
Typical values for extracellular HBV virion DNA in untreated cells range from 50 to 100 pg/ml culture medium (average of approximately 76 pg/ml). Intracellular HBV DNA replication intermediates in untreated cells range from 50 to 100 pg/μg cell DNA) (average approximately 74 pg/μg cell DNA). In general, depressions in the levels of intracellular HBV DNA due to treatment with antiviral compounds are less pronounced, and occur more slowly, than depressions in the levels of HBV virion DNA).
In the following data table, data is shown concerning analysis of intracellular HBV DNA at 24 hours following the 9th day of treatment. DNA in each cell DNA preparation were used to calculate the levels of episomal 3.2 Kb HBV genomes (MONO.) and HBV DNA replication intermediates (RI). A "zero" indicates an undetectable level of HBV DNA, sensitivity cutoff was 0.1 pg/ml.

Data set [1] is described as follows: toxicity analysis: uptake of neutral red dye. Particulars: triplicate cultures, ± standard deviation, read-out: Neutral Red Dye Uptake at Indicated Drug Concentration. On the procedure:
(§1) Toxicity analyses were performed in order to assess whether any observed antiviral effects are due to a general effect on cell viability. The method used was uptake of neutral red dye, a standard and widely used assay for cell viability in a variety of virus-host systems, including HSV and HIV.
(§2) Toxicity results were performed in 96-well flat bottomed tissue cultures plates. Cells for the toxicity analyses were cultured and treated with test compounds with the same schedule as used for the antiviral evaluations. Each compound was tested at four concentrations, each in triplicate cultures. Uptake of neutral red dye was used to determine the relative level of toxicity. The absorbance of internalized dye at […] (A510) was used for the quantitative analysis. Values are presented as a percentage of the average A510 values (±standard deviations) in nine separate cultures of untreated cells maintained on the same 96-well plate as the test compounds.

A further data set has as its system cell viability. Description: toxicity analysis: uptake of neutral red dye. To be noted: triplicate cultures, ± standard deviation. On the procedure:
as §1, §2

Take `Nc1ccn([C@H]2CC[C@@H](CO)O2)c(=O)n1` [2',3'-ddC, 2,3'-dideoxycytosine]: the “effect on HBV DNA replication (in words)” value with HBV is “significant depressions of HBV DNA replication”. The “Intracellular HBV DNA MONO. (episomal 3.2 Kb HBV genomes)” value in the data set with HBV (10 μM, 24 hours following the 9th day of treatment) was 1.6 pg/μg CELL DNA and 1.8 pg/μg CELL DNA. For the same compound, the “HBV VIRION DNA DAY 0” value in the data set on HBV (10 μM, day 0) is 63 pg/ml CULTURE MEDIUM and 87 pg/ml CULTURE MEDIUM and 82 pg/ml CULTURE MEDIUM. Besides, the “HBV VIRION DNA DAY 3” value in the data set with HBV (10 μM, day 3) was 75 pg/ml CULTURE MEDIUM and 56 pg/ml CULTURE MEDIUM and 61 pg/ml CULTURE MEDIUM. In the data set on HBV (10 μM, day 6), the “HBV VIRION DNA DAY 6” value worked out at 26 pg/ml CULTURE MEDIUM. Further, the “HBV VIRION DNA DAY 9” value in the data set on HBV (10 μM, day 9, zero = undetectable, cutoff 0.1 pg/ml) is 2 pg/ml CULTURE MEDIUM and 1 pg/ml CULTURE MEDIUM. The inhibition at 9 µM in the data set with HBV (Hepatitis B virus, read-out: depression of HBV RI relative to average levels in untreated cells) amounted to 90%. For the same compound, the viability in data set [1] (1000 μg/ml) was found to be 12 ± 5%; in data set [1] (3000 μg/ml), 40 ± 4%. The “Neutral Red Dye Uptake at Indicated Drug Concentration” value in the data set on cell viability (10 μg/ml) was 102 ± 2 % of Control; with cell viability (30 μg/ml) it was 101 ± 3 % of Control.
